{
  "source": "patent US20090306137A1",
  "about": "“TREATMENT FOR DEPRESSIVE DISORDERS” (priority 2006, published 2009)",
  "key": {"[1]": {"molecular_target": "Nea1", "test": "receptor affinity", "format": "binding", "details": "high affinity"}, "[2]": {"molecular_target": "T1, Nea2c (Homo sapiens, UniProt P18825)", "T1 sequence (P18825 1-462)": "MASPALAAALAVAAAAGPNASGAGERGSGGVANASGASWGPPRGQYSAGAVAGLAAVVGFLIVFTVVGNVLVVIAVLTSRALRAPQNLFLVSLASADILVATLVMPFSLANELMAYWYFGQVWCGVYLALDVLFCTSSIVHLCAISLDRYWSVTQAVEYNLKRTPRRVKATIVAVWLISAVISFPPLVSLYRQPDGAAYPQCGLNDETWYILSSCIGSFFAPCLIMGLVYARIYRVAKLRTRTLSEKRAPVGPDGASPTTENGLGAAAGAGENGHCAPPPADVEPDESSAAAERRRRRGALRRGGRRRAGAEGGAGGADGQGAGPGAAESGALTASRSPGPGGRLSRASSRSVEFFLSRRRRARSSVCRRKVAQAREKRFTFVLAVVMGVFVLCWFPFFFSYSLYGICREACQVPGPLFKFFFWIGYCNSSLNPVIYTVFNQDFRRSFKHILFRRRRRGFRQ", "test": "receptor affinity", "format": "binding", "details": "high affinity"}, "[3]": {"molecular_target": "D3 (Homo sapiens, UniProt P35462)", "sequence (P35462 whole entry)": "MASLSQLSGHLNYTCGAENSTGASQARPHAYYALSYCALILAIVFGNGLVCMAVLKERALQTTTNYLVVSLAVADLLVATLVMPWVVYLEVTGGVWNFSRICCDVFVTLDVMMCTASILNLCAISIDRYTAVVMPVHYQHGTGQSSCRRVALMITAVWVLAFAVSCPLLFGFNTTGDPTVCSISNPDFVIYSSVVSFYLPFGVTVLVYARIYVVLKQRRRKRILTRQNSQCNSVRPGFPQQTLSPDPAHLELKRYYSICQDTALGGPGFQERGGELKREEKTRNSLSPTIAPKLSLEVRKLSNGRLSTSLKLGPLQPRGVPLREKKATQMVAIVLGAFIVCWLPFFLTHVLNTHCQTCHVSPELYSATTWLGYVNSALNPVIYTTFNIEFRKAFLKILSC", "test": "receptor affinity", "format": "binding", "details": "high affinity"}, "[4]": {"molecular_target": "T2, 5-HT1A (Homo sapiens, UniProt P08908)", "T2 sequence (P08908 1-422)": "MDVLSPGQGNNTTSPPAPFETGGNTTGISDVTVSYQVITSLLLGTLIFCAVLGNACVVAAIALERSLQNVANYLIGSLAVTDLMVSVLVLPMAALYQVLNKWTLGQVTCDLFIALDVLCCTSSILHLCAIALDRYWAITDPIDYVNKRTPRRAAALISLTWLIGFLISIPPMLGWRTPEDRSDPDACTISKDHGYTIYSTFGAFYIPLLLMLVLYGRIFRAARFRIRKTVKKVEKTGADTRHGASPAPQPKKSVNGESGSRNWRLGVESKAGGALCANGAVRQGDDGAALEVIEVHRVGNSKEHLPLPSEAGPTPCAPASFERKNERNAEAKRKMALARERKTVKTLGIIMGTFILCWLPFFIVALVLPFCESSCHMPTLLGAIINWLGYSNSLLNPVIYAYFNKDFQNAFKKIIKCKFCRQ", "test": "receptor affinity", "format": "binding", "details": "listed both as high and as moderate affinity"}, "[5]": {"molecular_target": "other dopaminergic, adrenergic, and serotoninergic receptors", "test": "receptor affinity", "format": "binding", "details": "moderate affinity"}, "[6]": {"system": "selected dopaminergic, serotoninergic, and adrenergic receptors", "test": "functional action at receptors", "format": "biochemical"}},
  "note": "Where “and” joins values, the source holds several entries; their conditions need not be identical. Equal entries are not always repeated.",
  "data": [
    {"smiles": "COc1cc(C(C)=O)ccc1OCCCN1CCC(c2noc3cc(F)ccc23)CC1", "note": "[Iloperidone, 1-[4-[3-[4-(6-flouro-1,2-benzisoxazol-3-yl)-1-piperidinyl]propoxy]-3-methoxyphenyl]ethanone]", "values": [
      {"measurement": "Kd", "setting": "[1]", "value": "< 10", "unit": "nM"},
      {"measurement": "Kd", "setting": "[2]", "value": "< 10", "unit": "nM"},
      {"measurement": "Kd", "setting": "[3]", "value": "< 10", "unit": "nM"},
      {"measurement": "Kd", "setting": "[4]", "value": "< 10 nM and 10 to 100 nM"},
      {"measurement": "Kd", "setting": "[5]", "value": "10 to 100", "unit": "nM"},
      {"measurement": "mode of action at receptors", "setting": "[6]", "value": "antagonist"}
    ]}
  ]
}
